We go through 2 molecules from patent publication EP0385680B1, “Heterocyclic ethers as 5-lipoxygenase inhibitors” (ZENECA LIMITED, priority 1989, dated 1990).

One assay addresses T1, 5-LO (Homo sapiens, UniProt P09917).
T1 construct: incubating a test compound with heparinised human blood, prior to challenge with the calcium ionophore A23187; endogenous in cells; host or cells: blood cells in heparinised human whole blood
T1 sequence (P09917 1-674): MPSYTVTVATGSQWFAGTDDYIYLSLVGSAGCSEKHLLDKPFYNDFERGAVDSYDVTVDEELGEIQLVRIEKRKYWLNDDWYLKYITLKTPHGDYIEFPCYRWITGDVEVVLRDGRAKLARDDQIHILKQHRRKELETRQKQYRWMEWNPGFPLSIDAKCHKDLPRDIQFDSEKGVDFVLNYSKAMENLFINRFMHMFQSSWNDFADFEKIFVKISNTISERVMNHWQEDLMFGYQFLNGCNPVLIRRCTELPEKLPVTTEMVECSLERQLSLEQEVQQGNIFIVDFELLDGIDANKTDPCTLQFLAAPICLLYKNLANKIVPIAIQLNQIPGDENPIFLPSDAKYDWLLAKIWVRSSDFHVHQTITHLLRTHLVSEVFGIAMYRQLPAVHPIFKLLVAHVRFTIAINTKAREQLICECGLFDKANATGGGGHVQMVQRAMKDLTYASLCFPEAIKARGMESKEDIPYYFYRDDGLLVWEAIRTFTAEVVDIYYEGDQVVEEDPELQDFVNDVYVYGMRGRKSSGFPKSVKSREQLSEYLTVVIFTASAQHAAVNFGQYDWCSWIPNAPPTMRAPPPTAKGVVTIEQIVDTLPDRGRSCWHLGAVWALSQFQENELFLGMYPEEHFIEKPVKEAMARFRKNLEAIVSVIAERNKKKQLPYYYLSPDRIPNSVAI
In words: Test b): in vitro heparinised human blood challenged with calcium ionophore A23187, radioimmunoassay of LTB4. The format is cell-based. The conditions noted are these: A23187 challenge, read-out: IC₅₀ against LTB₄. On the procedure:
(§1) As stated previously, the heterocyclic ethers of the formula I are inhibitors of the enzyme 5-LO. […] This test provides a measure of the intrinsic inhibitory properties against soluble 5-LO in an extracellular environment. • b) An in vitro assay system involving incubating a test compound with heparinised human blood, prior to challenge with the calcium ionophore A23187 and then indirectly measuring the inhibitory effects on 5-LO by assaying the amount of LTB₄ using the specific radioimmunoassay described by Carey and Forder (F. Carey and R.A. Forder, Brit. […] The effects of a test compound on the enzyme cyclooxygenase (which is involved in the alternative metabolic pathway for arachidonic acid and gives rise to prostaglandins, thromboxanes and related metabolites) may be measured at the same time using the specific radioimmunoassay for thromboxane B₂(TxB₂) described by Carey and Forder (see above). […] It permits the selectivity of the inhibitory effect on 5-LO or cyclooxygenase to be assessed. • c) An ex vivo assay system, which is a variation of test b) above, involving administration of a test compound (usually orally as the suspension produced when a solution of the test compound in dimethylsulphoxide is added to carboxymethylcellulose), blood collection, heparinisation, challenge with A23187 and radioimmunoassay of LTB₄ and TxB₂. […]

In the next assay the target is T2, cyclooxygenase (Homo sapiens, UniProt P23219).
T2 construct: against 5-LO and also cyclooxygenase in the presence of blood cells and proteins; endogenous in cells; host or cells: blood cells in heparinised human whole blood
Briefly: Test b): in vitro heparinised human blood challenged with calcium ionophore A23187, radioimmunoassay of TxB2. In kind it is cell-based. The conditions noted are these: A23187 challenge, read-out: IC₅₀ against TxB₂. On the procedure:
as §1

T2 sequence (P23219 24-599): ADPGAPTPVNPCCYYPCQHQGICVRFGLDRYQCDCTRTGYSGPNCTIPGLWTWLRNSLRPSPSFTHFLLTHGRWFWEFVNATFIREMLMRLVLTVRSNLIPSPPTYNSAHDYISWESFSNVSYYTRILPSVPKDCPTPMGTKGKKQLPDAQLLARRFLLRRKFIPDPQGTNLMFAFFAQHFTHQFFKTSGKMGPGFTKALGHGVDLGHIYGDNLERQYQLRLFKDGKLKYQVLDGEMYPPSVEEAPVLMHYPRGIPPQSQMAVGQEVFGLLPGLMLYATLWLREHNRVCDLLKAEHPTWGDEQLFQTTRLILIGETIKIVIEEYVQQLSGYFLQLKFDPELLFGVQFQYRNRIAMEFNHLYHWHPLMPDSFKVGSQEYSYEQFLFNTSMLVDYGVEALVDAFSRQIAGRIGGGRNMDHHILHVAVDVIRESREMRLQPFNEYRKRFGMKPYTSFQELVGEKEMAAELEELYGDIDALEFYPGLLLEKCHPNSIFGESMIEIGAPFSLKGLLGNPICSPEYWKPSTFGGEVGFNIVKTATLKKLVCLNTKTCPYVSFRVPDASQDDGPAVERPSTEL

Take `C=CCOCC(CC)(OCC=C)c1cc(F)cc(OCc2ccc3c(ccc(=O)n3C)c2)c1` (stereo not drawn) [2-allyloxy-2-[5-fluoro-3-(1,2-dihydro-1-methyl-2-oxoquinolin-6-ylmethoxy)phenyl]but-1-yl allyl ether]: on 5-LO, the IC50 was 0.1 µM.
Take `CCC(COC)(OC)c1cccc(OCC#Cc2ccccn2)c1` (stereo not drawn) [2-methoxy-2-[3-(3-(2-pyridyl)prop-2-yn-1-yloxy)phenyl]but-1-yl methyl ether]: the IC50 is 1 µM at 5-LO and above 40 µM on cyclooxygenase.
